Like-named read-outs stand apart in the source and are kept apart here.
Tests used:
[1] = test system: recombinant Lactobacillus reuteri oxidoreductase; assay: Substrate spectrum in standard measurement mixture; type: biochemical; details: for NADP-dependent dehydrogenase activity: oxidation of the hydroxy ester
[2] = test system: L. reuteri oxidoreductase; assay: Solvent stability: enzyme activity after contact with organic solvents; type: biochemical, Lactobacillus reuteri; details: for Activity 8 h / Activity 24 h: room temperature; for stability with respect to organic solvents: in words
Description: The enzyme stability when making contact with organic solvents was studied by diluting the L. reuteri oxidoreductase 1:400 (in the case of water-miscible organic solvents) with the solvent mixtures indicated and incubating at room temperature. Subsequently, 10 μl of the enzyme solution were used in the standard assay mixture. Here too, the starting value was set to 100% after dilution in the buffer (potassium phosphate buffer 100 mM, pH=7.0, 1 mM MgCl2) and all other values were related thereto.
In the case of the water-immiscible organic solvents, dilution was likewise carried out in potassium phosphate buffer, the same volume of organic solvent was added to the mixture and the mixture incubated at room temperature in a thermal mixer at rpm=170. The activity was measured from the aqueous phase.

[3] = test system: L. reuteri oxidoreductase; assay: Preparative conversion, coenzyme regeneration with Thermoanerobium brockii ADH; type: biochemical, Lactobacillus reuteri; details: 4 ml substrate, 1 000 units oxidoreductase, room temperature, after 24 h
Description: For a preparative approach, a mixture of 4 ml of potassium phosphate buffer 100 mM, pH=7.0, 2 ml of isopropanol, 4 ml of ethyl 2-oxo-4-phenylbutyrate, 0.064 mg of NADP, 1 000 units of L. reuteri oxidoreductase and 10 mg of Thermoanerobium brockii ADH (Fluka, approximately 100 U, based on oxidation of 2-propanol) was incubated at room temperature with constant mixing for 24 h. […] 97% of the product was the corresponding S-alcohol.

[4] = test system: L. reuteri oxidoreductase; assay: Preparative conversion, coenzyme regeneration with KRED 1004; type: biochemical, Lactobacillus reuteri; details: 4 ml substrate, 1 000 units oxidoreductase, 1 mg KRED 1004, room temperature, after 2 h
Description: For a preparative approach, a mixture of 4 ml of potassium phosphate buffer 100 mM, pH=7.0, 2 ml of isopropanol, 4 ml of ethyl 2-oxo-4-phenylbutyrate, 0.064 mg of NADP, 1 000 units of L. reuteri oxidoreductase and 1 mg of KRED 1004 (Biocatalytics Inc, Pasadena) was incubated at room temperature with constant mixing for 2 h. […] 98% of the product was the corresponding S-alcohol.

[5] = pH stability of recombinant L. reuteri oxidoreductase; type: physicochemical
Description: The dependence of the activity of the enzyme on storage in buffers of different pH was studied for the pH range from 4 to 11. For this purpose, various buffers (50 mM) in the pH range from 4 to 11 were prepared and the enzyme overexpressed in example 4 was diluted therein 1:200 and incubated for 30, 60 and 300 min. All buffers contained 1 mM MgCl2. 10 μl thereof were then used in the normal activity assay. The starting value here is the measurement value obtained immediately after diluting the enzyme in potassium phosphate buffer 50 mM pH=7.0. Said value corresponded under predefined conditions to a change in extinction of 0.70/min and was set to 100% and all subsequent measurement values were related to this value.

[6] = pH optimum of recombinant L. reuteri oxidoreductase; type: biochemical
Description: Preparation of the following measurement buffers, all of which are 50 mM, contain 1 mM MgCl2 and have different pH values.
Enzyme diluted as required (1:20)
A pH optimum of between 6.5 and 7 was determined for the enzyme of the invention.

[7] = Temperature stability of recombinant L. reuteri oxidoreductase; type: physicochemical; details: after only 30 min
Description: The temperature stability for the range from 15° C. to 70° C. was determined in a manner similar to that described under 5.2. […] Here too, the starting value used was the measurement value which is obtained immediately after diluting the enzyme in potassium phosphate buffer 50 mM pH=7.0 and which was set to 100% here, too.

[8] = Temperature optimum of recombinant L. reuteri oxidoreductase; type: biochemical
[9] = substrate: CCCC(=O)C(=O)OCC; assay: Determination of Km and vmax; type: biochemical, Lactobacillus reuteri; details: other: potassium phosphate buffer pH=7.0, enzyme solution 1:300
Description: The enzyme solution used was the 1:300 diluted lysate (600 μl) obtained from 0.1 g of recombinant E. coli cells.

[10] = reduction with NADPH, activity with ethyl 2-oxo-4-phenylbutyrate set to 100%
[11] = water-immiscible solvent, same volume as buffer, activity from the aqueous phase
[12] = water-miscible solvent mixture or buffer, enzyme 1:400, starting value 100%
[13] = Oxidation, activity with ethyl 2-oxo-4-phenylbutyrate set to 100%

## CCOC(=O)C(=O)c1ccccc1 [Ethyl phenylglyoxylate]
[1]; [10]
  Relative activity %: 2%

## O=C(CCl)c1cccc(Cl)c1 [2-Chloro-l-(3-chloro-phenyl)-ethan-1-one]
[1]
  Relative activity %: 0%

## CCOC(=O)CC(=O)CCl [Ethyl 4-chloro-acetoacetate]
[1]; [10]
  Relative activity %: 16%

## CCOC(=O)CC(=O)CC [Ethyl 3-oxo-valerate]
[1]; [10]
  Relative activity %: 1.3%

## CCCCCCC(C)=O [2-Octanone]
[1]; [10]
  Relative activity %: 1%

## COC(C)(C)C [MTBE]
[2]; [11]
  Activity 8 h: 90%
  Activity 24 h: 81%

## CC(C)O [5% Isopropanol, Isopropanol]
[2]; [12]
  Activity 8 h: 77%
  Activity 24 h: 77%

## CC(=O)c1ccccc1 [Acetophenone]
[1]; [10]
  Relative activity %: 0%

## CC(C)O [20% Isopropanol, Isopropanol]
[2]; [12]
  Activity 8 h: 100%
  Activity 24 h: 100%

## CCO [30% EtOH, EtOH]
[2]; [12]
  Activity 8 h: 77%
  Activity 24 h: 75%

## CCCCCC(=O)CC [3-Octanone]
[1]; [10]
  Relative activity %: 4%

## CCO [5% EtOH, EtOH]
[2]; [12]
  Activity 8 h: 64%
  Activity 24 h: 65%

## R-4-Chloro-3-hydroxy-butyrate
[1]; [13]
  Relative activity %: 0%
[1]
  NADP-dependent dehydrogenase activity: no NADP-dependent dehydrogenase activity

## COC(=O)CC(C)=O [Methyl acetoacetate]
[1]; [10]
  Relative activity %: 0.3%

## O=C(O)C(=O)Cc1ccccc1 [2-Oxo-3-phenyl-propionic acid]
[1]; [10]
  Relative activity %: 0.5%

## CCOC(=O)[C@H](C)O [Ethyl L-lactate]
[1]; [13]
  Relative activity %: 0%
[1]
  NADP-dependent dehydrogenase activity: no NADP-dependent dehydrogenase activity

## CC(C)O [2-Propanol]
[1]; [13]
  Relative activity %: 0%

## CCC(=O)C(=O)O [2-oxobutyric acid]
[1]; [10]
  Relative activity %: 0%

## CCO [20% EtOH, EtOH]
[2]; [12]
  Activity 8 h: 83%
  Activity 24 h: 80%

## CC(C)O [30% Isopropanol, Isopropanol]
[2]; [12]
  Activity 8 h: 0%
  Activity 24 h: 0%

## CCOC(=O)C(=O)CCc1ccccc1 [Ethyl 2-oxo-4-phenyl-butyrate]
[3]
  conversion to ethyl 2-hydroxy-4-phenylbutyrate: completely converted
[4]
  conversion to ethyl 2-hydroxy-4-phenylbutyrate: completely converted
[1]; [10]
  Relative activity %: 100%

## CCCC(=O)C(=O)O [2-Oxovaleric acid]
[1]; [10]
  Relative activity %: 0%

## ClC(Cl)Cl [Chloroform]
[2]; [11]
  Activity 8 h: 6%
  Activity 24 h: 0%

## CCOC(=O)[C@H](O)CCc1ccccc1
[1]; [13]
  Relative activity %: 0%
[1]
  NADP-dependent dehydrogenase activity: no NADP-dependent dehydrogenase activity

## CCOC(C)=O [Ethyl acetate]
[2]; [11]
  Activity 8 h: 0%
  Activity 24 h: 0%

## CC(C)OC(C)C [Diisopropyl ether]
[2]; [11]
  Activity 8 h: 94%
  Activity 24 h: 77%

## CCCCCC [Hexane]
[2]; [11]
  Activity 8 h: 115%
  Activity 24 h: 100%

## CCOC(=O)[C@@H](C)O [Ethyl D-lactate]
[1]; [13]
  Relative activity %: 0%
[1]
  NADP-dependent dehydrogenase activity: no NADP-dependent dehydrogenase activity

## CC(C)O [10% Isopropanol, Isopropanol]
[2]; [12]
  Activity 8 h: 86%
  Activity 24 h: 85%

## CCOC(=O)CCCCC(=O)CCCl [Ethyl 8-chloro-6-oxooctanoic acid]
[1]; [10]
  Relative activity %: 190%

## CC(=O)Cc1ccccc1 [1-Phenyl-2-propanone]
[1]; [10]
  Relative activity %: 3%

## C1CCCCC1 [Cyclohexane]
[2]; [11]
  Activity 8 h: 113%
  Activity 24 h: 100%

## CC(C)=O [Acetone]
[1]; [10]
  Relative activity %: 0%

## C[S+](C)[O-] [20% DSMO]
[2]; [12]
  Activity 8 h: 79%
  Activity 24 h: 80%

## COC(=O)CCCCC(=O)CC(=O)OC [Dimethyl-3-oxo-1,8-octanedioic acid]
[1]; [10]
  Relative activity %: 42%

## CCCCCCC [Heptane]
[2]; [11]
  Activity 8 h: 113%
  Activity 24 h: 100%

## CCCC(=O)C(=O)OCC [Ethyl 2-oxovalerate]
[1]; [10]
  Relative activity %: 190%

## CCOCC [Diethyl ether]
[2]; [11]
  Activity 8 h: 32%
  Activity 24 h: 20%

## CCCCCCCC(=O)c1ccccc1 [Caprylophenone]
[1]; [10]
  Relative activity %: 0%

## C[S+](C)[O-] [10% DSMO]
[2]; [12]
  Activity 8 h: 80%
  Activity 24 h: 80%

## CCO [10% EtOH, EtOH]
[2]; [12]
  Activity 8 h: 68%
  Activity 24 h: 70%

## O=C(O)C[C@H](O)CCl [S-4-Chloro-3-hydroxy-butyrate]
[1]; [13]
  Relative activity %: 0%
[1]
  NADP-dependent dehydrogenase activity: no NADP-dependent dehydrogenase activity

## CCOC(=O)C(C)=O [Ethyl pyruvate]
[1]; [10]
  Relative activity %: 2%

## CCCCOC(C)=O [Butyl acetate]
[2]; [11]
  Activity 8 h: 74%
  Activity 24 h: 12%

B1: recombinant L. reuteri oxidoreductase (Limosilactobacillus reuteri subsp. reuteri) (protein)
chain: MKNIMIAGAGVLGSQIAYQTALSGFNVSVYNHHIDTAERRIKALKSDYERDLHLTDKEFQQGLNNIKVITDDVATAVKDADLMIEALPESLELKEQFYEEVSELAPEKTIFASNSSTFIPSQLAPYTDRPEKFLNMHFANQIWKFNVVEIMGTSQTSPEVIEEATKFAREIKMVPVILNKEQHGYILNSLLIPLLASGLSLWAKGVADPAMIDKDWMISTGAPMGPFGILDMVGLRTAAQIERNAYAQTKDESHKEIADKMEQMIQEGHEGKESGQGFYNYPNPAFMDPDFLKH
[5]; pH 4.0, after 5 h
  remaining activity: 50%
[5]; pH 9.0, after 5 h
  remaining activity: 40%
[5]; pH values above 9.5
  stability at high pH: immediate inactivation
[6]; in the pH range from 4.5 to 8
  share of maximum activity: 80%
[6]; pH values of below 4.0 and above 8.5
  activity outside the pH range: rapidly decreasing
[7]
  enzyme activity after incubation at 55° C.: no longer detectable
[8]; 15 ° C.
  Activity in U/ml of undiluted enzyme: 385 U/ml of undiluted enzyme
[8]; 20 ° C.
  Activity in U/ml of undiluted enzyme: 745 U/ml of undiluted enzyme
[8]; 25 ° C.
  Activity in U/ml of undiluted enzyme: 1090 U/ml of undiluted enzyme
[8]; 30 ° C.
  Activity in U/ml of undiluted enzyme: 1350 U/ml of undiluted enzyme
[8]; 35 ° C.
  Activity in U/ml of undiluted enzyme: 1860 U/ml of undiluted enzyme
[8]; 40 ° C.
  Activity in U/ml of undiluted enzyme: 2500 U/ml of undiluted enzyme
[8]; 45 ° C.
  Activity in U/ml of undiluted enzyme: 2900 U/ml of undiluted enzyme
[8]; 50 ° C.
  Activity in U/ml of undiluted enzyme: 3200 U/ml of undiluted enzyme
[8]; 55 ° C.
  Activity in U/ml of undiluted enzyme: 3800 U/ml of undiluted enzyme
[8]; 60 ° C.
  Activity in U/ml of undiluted enzyme: 617 U/ml of undiluted enzyme
[8]; 65 ° C.
  Activity in U/ml of undiluted enzyme: 180 U/ml of undiluted enzyme
[8]; 70 ° C.
  Activity in U/ml of undiluted enzyme: 90 U/ml of undiluted enzyme
[8]; standard measurement mixture, 15° C. to 70° C.
  optimal temperature (maximum activity): 55 °C
[2]
  stability with respect to organic solvents: remarkably stable
[2]; listed as Lactobacillus reuteri oxidoreductase
  stability with respect to organic solvents: high stability
[9]
  Km: 180 ± 70 µM

— patent US20050191735A1, “Oxidoreductase” (priority 2003, published 2005)
